In patent US20090018134A1, “Compounds - 945” (AstraZeneca AB, priority 2007, published 2009) one finds IC50 data, which are given here for 11 compounds.

This experiment deals with T1, mTOR (Homo sapiens, UniProt P42345).
T1 construct: FLAG; made in house
T1 sequence (P42345 1362-2549): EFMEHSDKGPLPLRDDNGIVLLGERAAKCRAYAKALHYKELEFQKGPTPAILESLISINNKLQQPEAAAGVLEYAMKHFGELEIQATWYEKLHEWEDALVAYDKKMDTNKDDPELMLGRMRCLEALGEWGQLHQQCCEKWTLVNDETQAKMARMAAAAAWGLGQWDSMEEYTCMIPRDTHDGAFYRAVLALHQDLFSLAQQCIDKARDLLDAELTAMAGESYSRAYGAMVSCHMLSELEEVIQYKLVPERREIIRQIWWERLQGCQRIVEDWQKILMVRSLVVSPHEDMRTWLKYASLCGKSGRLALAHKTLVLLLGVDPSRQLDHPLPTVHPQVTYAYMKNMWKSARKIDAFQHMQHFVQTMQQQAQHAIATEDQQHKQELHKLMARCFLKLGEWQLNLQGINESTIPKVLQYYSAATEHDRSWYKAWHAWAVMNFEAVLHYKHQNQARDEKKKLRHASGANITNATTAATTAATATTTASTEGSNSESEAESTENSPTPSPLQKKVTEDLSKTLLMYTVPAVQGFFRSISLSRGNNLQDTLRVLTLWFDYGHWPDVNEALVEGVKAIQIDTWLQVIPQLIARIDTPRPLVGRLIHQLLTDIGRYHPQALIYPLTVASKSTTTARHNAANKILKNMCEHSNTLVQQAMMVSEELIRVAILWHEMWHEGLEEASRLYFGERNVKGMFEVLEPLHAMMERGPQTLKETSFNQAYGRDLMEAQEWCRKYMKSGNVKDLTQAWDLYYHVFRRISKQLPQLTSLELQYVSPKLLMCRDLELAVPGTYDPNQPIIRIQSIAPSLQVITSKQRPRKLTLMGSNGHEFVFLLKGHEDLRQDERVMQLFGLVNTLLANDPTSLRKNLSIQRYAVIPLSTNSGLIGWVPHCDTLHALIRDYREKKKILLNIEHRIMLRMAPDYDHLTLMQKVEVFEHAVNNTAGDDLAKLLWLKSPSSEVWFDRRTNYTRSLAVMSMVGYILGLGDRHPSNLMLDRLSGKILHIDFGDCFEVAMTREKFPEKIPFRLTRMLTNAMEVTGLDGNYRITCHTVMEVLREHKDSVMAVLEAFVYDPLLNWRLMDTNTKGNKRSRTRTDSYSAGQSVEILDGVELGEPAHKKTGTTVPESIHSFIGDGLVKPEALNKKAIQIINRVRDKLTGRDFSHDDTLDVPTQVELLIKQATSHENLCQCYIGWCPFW
As to the kind of experiment: In Vitro mTOR Kinase Assay (Echo), Test (a)(ii). The experiment is classed as biochemical. As to conditions: table of enzyme assay Test (a)(ii); read-out: Test (a)(ii) IC50. In a few lines:
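FLAG-tagged human mTOR truncation (residues 1362-2549) expressed in HEK293 cells and FLAG-purified. Compounds dispensed acoustically, reaction 2 h at room temperature, stopped with EDTA. Phosphorylation of biotinylated peptide detected by AlphaScreen with anti-p70 S6K (T389) antibody overnight; IC50 reported.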
Take `C[C@H]1COCCN1c1cc(C2(S(=O)(=O)c3ccncc3)CC2)nc(-c2ccc(NC(=S)NC3CC3)cc2)n1` [Example 37ae, 3-cyclopropyl-1-[4-[4-[(3S)-3-methylmorpholin-4-yl]-6-(1-pyridin-4-ylsulfonylcyclopropyl)pyrimidin-2-yl]phenyl]thiourea]: the IC50 stood at 9.52 nM.

`CNC(=S)Nc1ccc(-c2nc(N3CCOC[C@@H]3C)cc(C3(S(=O)(=O)c4ccncc4)CC3)n2)cc1` [Example 37af, 3-methyl-1-[4-[4-[(3S)-3-methylmorpholin-4-yl]-6-(1-pyridin-4-ylsulfonylcyclopropyl)pyrimidin-2-yl]phenyl]thiourea]: the IC50 is 23.3 nM.

In the case of `C[C@H]1COCCN1c1cc(C2(S(=O)(=O)c3ccccc3)CC2)nc(-c2ccc(NC(=S)NC(C)(C)CO)cc2)n1` [Example 37ag, 1-[4-[4-[1-(benzenesulfonyl)cyclopropyl]-6-[(3S)-3-methylmorpholin-4-yl]pyrimidin-2-yl]phenyl]-3-(1-hydroxy-2-methylpropan-2-yl)thiourea], the IC50 turned out to be 13.4 nM.

For the compound `C[C@H]1COCCN1c1cc(C2(S(=O)(=O)C3CC3)CC2)nc(-c2ccc(NC(=S)NC3CC3)cc2)n1` [Example 37b, 3-cyclopropyl-1-[4-[4-(1-cyclopropylsulfonylcyclopropyl)-6-[(3S)-3-methylmorpholin-4-yl]pyrimidin-2-yl]phenyl]thiourea], the IC50 is 12.4 nM.

In the case of `C[C@H]1COCCN1c1cc(C2(S(=O)(=O)CCCO)CC2)nc(-c2ccc(NC(=S)NC3CCC3)cc2)n1` [Example 37d, 3-cyclobutyl-1-[4-[4-[1-(3-hydroxypropylsulfonyl)cyclopro-pyl]-6-[(3S)-3-methylmorpholin-4-yl]pyrimidin-2-yl]phenyl]thiourea], the IC50 was determined as 4.39 nM.

In the case of `C[C@H]1COCCN1c1cc(C2(S(=O)(=O)CCCO)CC2)nc(-c2ccc(NC(=S)NCCC#N)cc2)n1` [Example 37e, 3-(2-cyanoethyl)-1-[4-[4-[1-(3-hydroxypropylsulfonyl)cyclopro-pyl]-6-[(3S)-3-methylmorpholin-4-yl]pyrimidin-2-yl]phenyl]thiourea], the IC50 amounted to 4.9 nM.

For `CNC(=S)Nc1ccc(-c2nc(N3CCOC[C@@H]3C)cc(C3(S(=O)(=O)CCCO)CC3)n2)cc1` [Example 37g, 1-[4-[4-[1-(3-hydroxypropylsulfonyl)cyclopro-pyl]-6-[(3S)-3-methylmorpholin-4-yl]pyrimidin-2-yl]phenyl]-3-methylthiourea], the IC50 was found to be 17.9 nM.

On to `C[C@H]1COCCN1c1cc(C2(S(=O)(=O)CCCO)CC2)nc(-c2ccc(NC(=S)Nc3cnn(C)c3)cc2)n1` [Example 37j, 1-[4-[4-[1-(3-hydroxypropylsulfonyl)cyclopro-pyl]-6-[(3S)-3-methylmorpholin-4-yl]pyrimidin-2-yl]phenyl]-3-(1-methylpyrazol-4-yl)thiourea], for which the IC50 turned out to be 30.9 nM.

In the case of `CCCNC(=S)Nc1ccc(-c2nc(N3CCOC[C@@H]3C)cc(C3(S(=O)(=O)CCCO)CC3)n2)cc1` [Example 37l, 3-[4-[4-[1-(3-hydroxypropylsulfonyl)cyclopro-pyl]-6-[(3S)-3-methylmorpholin-4-yl]pyrimidin-2-yl]phenyl]-1-propylthiourea], the IC50 was determined as 32 nM.

Take `C[C@H]1COCCN1c1cc(C2(S(C)(=O)=O)CC2)nc(-c2ccc(NC(=S)NCCCO)cc2)n1` [Example 37m, 3-(3-hydroxypropyl)-1-[4-[4-[(3S)-3-methylmorpholin-4-yl]-6-(1-methylsulfonylcyclopropyl)pyri-midin-2-yl]phenyl]thiourea]: the IC50 was 50.6 nM.

For the compound `CCCNC(=S)Nc1ccc(-c2nc(N3CCOC[C@@H]3C)cc(C3(S(C)(=O)=O)CC3)n2)cc1` [Example 37n, 1-[4-[4-[(3S)-3-methylmorpholin-4-yl]-6-(1-methylsulfonylcyclopropyl)pyri-midin-2-yl]phenyl]-3-propylthiourea], the IC50 was 39.3 nM.
